# From patent US11597724B2, “Herbicidally active 3-phenylisoxazoline-5-carboxamides of tetrahydro and dihydrofuran carboxylic acids and esters” (Bayer Aktiengesellschaft, priority 2017, dated 2023)
# Columns and labels:
# Type in all cases: in vivo
# [1] = test system: Alopecurus myosuroides; experiment: Pre-emergence herbicidal activity against ALOMY; details: dosage 80 g/ha, scored visually after about 3 weeks vs untreated controls (100% = plants have died, 0% = like control plants); for pest or weed control at 80 g/ha: Alopecurus myosuroides, 504 h
# From the text: (§1) 1. Pre-Emergence Herbicidal Action and Crop Plant Compatibility Seeds of monocotyledonous and dicotyledonous weed plants and crop plants are placed in plastic or wood fiber pots and covered with soil. The compounds of the invention, formulated in the form of wettable powders (WP) or as emulsion concentrates (EC), are then applied onto the surface of the covering soil as aqueous suspension or emulsion with addition of 0.5% additive at a water application rate of 600 l/ha (converted). After the treatment, the pots are placed in a greenhouse and kept under good growth conditions for the trial plants. After about 3 weeks, the effect of the preparations is scored visually in comparison with untreated controls as percentages. For example, 100% activity=the plants have died, 0% activity=like control plants. ABUTH: Abutilon theophrasti ALOMY: Alopecurus myosuroides
# [2] = test system: Setaria viridis; experiment: Pre-emergence herbicidal activity against SETVI; details: dosage 80 g/ha; for pest or weed control at 80 g/ha: Setaria viridis, 504 h
# From the text: as §1, with “POLCO: Polygonum convolvulus SETVI: Setaria viridis” for “ABUTH: Abutilon theophrasti ALOMY: Alopecurus myosuroides”
# [3] = test system: Polygonum convolvulus; experiment: Pre-emergence herbicidal activity against POLCO; details: dosage 80 g/ha; for pest or weed control at 80 g/ha: Fallopia convolvulus, 504 h
# Outline: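 Seeds sown in pots, soil surface sprayed pre-emergence with WP or EC formulations in water (600 l/ha) plus 0.5% additive. Greenhouse growth for about 3 weeks. Damage scored visually as % versus untreated controls (100% = plants dead).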
# [4] = test system: Echinochloa crus-galli; experiment: Post-emergence herbicidal activity against ECHCG; details: dosage 320 g/ha, rated about 3 weeks after treatment
# Outline: (§2)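 Greenhouse pot plants sprayed post-emergence at one-leaf stage (2-3 weeks after sowing) with WP or EC formulations, 0.5% additive, 600 l/ha water. Visual rating about 3 weeks later versus untreated controls: 100% = plants dead, 0% = like control.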
# [5] = test system: Lolium rigidum; experiment: Post-emergence herbicidal activity against LOLRI; details: dosage 320 g/ha, rated about 3 weeks after treatment
# Outline: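 Greenhouse-grown plants sprayed post-emergence at the one-leaf stage, 2 to 3 weeks after sowing, with WP or EC formulations plus 0.5% additive at 600 l/ha water. Activity rated visually after about 3 weeks versus untreated controls (100% = plants dead, 0% = like control).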
# [6] = test system: Setaria viridis; experiment: Post-emergence herbicidal activity against SETVI; details: dosage 320 g/ha, rated about 3 weeks after treatment
# Outline: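 Greenhouse weeds in sandy loam were sprayed at the one-leaf stage, 2–3 weeks after sowing, with WP or EC formulations plus 0.5% additive at 600 l/ha water. About 3 weeks later, damage was rated visually against untreated controls, where 100% means plants dead and 0% means like control.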
# [7] = test system: Abutilon theophrasti; experiment: Post-emergence herbicidal activity against ABUTH; details: dosage 320 g/ha, rated about 3 weeks after treatment
# Outline: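 Greenhouse-grown plants treated at one-leaf stage, 2 to 3 weeks after sowing, with WP or EC formulations sprayed as aqueous suspension/emulsion plus 0.5% additive at 600 l/ha. Activity rated visually about 3 weeks later versus untreated controls (100% = plants dead, 0% = like control).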
# [8] = test system: Viola tricolor; experiment: Post-emergence herbicidal activity against VIOTR; details: dosage 320 g/ha, rated about 3 weeks after treatment
# Outline: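 Greenhouse plants in sandy loam treated at one-leaf stage, 2 to 3 weeks after sowing, by spraying WP or EC formulations with 0.5% additive at 600 l/ha water. Activity rated visually after about 3 weeks versus untreated controls, 100% = plants dead, 0% = like control.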
# [9] = test system: Hordeum murinum; experiment: Post-emergence herbicidal activity against HORMU; details: dosage 320 g/ha
# Outline: as §2
SMILES,pest or weed control at 80 g/ha [1] [%],pest or weed control at 80 g/ha [2] [%],pest or weed control at 80 g/ha [3] [%],Post-emergence herbicidal activity against ECHCG in % [4] [%],Post-emergence herbicidal activity against LOLRI in % [5] [%],Post-emergence herbicidal activity against SETVI in % [6] [%],Post-emergence herbicidal activity against ABUTH in % [7] [%],Post-emergence herbicidal activity against VIOTR in % [8] [%],Post-emergence herbicidal activity against HORMU in % [9] [%],Pre-emergence herbicidal activity against ALOMY in % [1] [%],Pre-emergence herbicidal activity against SETVI in % [2] [%],Pre-emergence herbicidal activity against POLCO in % [3] [%],"pest or weed control at 320 g/ha ([4]; Echinochloa crus-galli, 504 h) [%]","pest or weed control at 320 g/ha ([5]; Lolium rigidum, 504 h) [%]","pest or weed control at 320 g/ha ([6]; Setaria viridis, 504 h) [%]","pest or weed control at 320 g/ha ([7]; Abutilon theophrasti, 504 h) [%]","pest or weed control at 320 g/ha ([8]; Viola tricolor, 504 h) [%]","pest or weed control at 320 g/ha ([9]; Hordeum murinum, 504 h) [%]"
"C=C[C@]1(C(=O)N[C@H]2CO[C@@H](C(=O)OC)C2)CC(c2cc(F)cc(F)c2)=NO1 (single isomer, unassigned) [I-12]",100,100,100,90,100,90,90,100,90,,,,,,,,,
CC(C)OC(=O)C1CC(NC(=O)C2(C)CC(c3cc(F)cc(F)c3)=NO2)CO1 (stereo not drawn) [I-44],,,,100,100,90,80,90,100,100,100,100,,,,,,
"COC(=O)C1=C[C@@H](NC(=O)C2(C)CC(c3cccc(F)c3)=NO2)CO1 (stereo partly drawn) [I-46, methyl (3R)-3-[[3-(3-fluorophenyl)-5-methyl-4H-isoxazole-5-carbonyl]amino]-2,3-dihydrofuran-5-carboxylate]",100,100,90,,,,,,,,,,100,100,80,80,90,100
